US10287616B2, “Label free biosensors, gram-negative bacteria detection, and real-time and end point determination of antibiotic effects” (priority 2015, dated 2019)
Where “and” joins values, the source holds several entries; their conditions need not be identical. Identical values can stand only once. Like-named read-outs stand apart in the source and are kept apart here.

What was measured:
[1] = system: E. coli W1485; experiment: End point antibiotic susceptibility test with Con A biosensor, square wave voltammetry readout; format: cell-based, Escherichia coli; conditions: 18 hours, FIG. 24B inset
Description: In the end point measurement, four samples containing 2×10^5 cells/mL of E. coli obtained from log phase in fresh LB culture were prepared. […] The four samples were incubated for 18 hours, 37° C., 280 rpm on an orbital environmental shaker. Finally, 1 μL of the E. coli culture from the each prepared sample was introduced to the Con A biosensor in 1 mL of 10 mM HEPES buffer (pH 7.4) for QCM and electrochemical biosensor measurements, respectively. The sample without addition of any antibiotic was used as control.
The concentrations used were based on the literature and current clinically used dosages. The sample without any antibiotic was used as a control. As mentioned above, E. coli W1485 was used as the model Gram-negative bacterial analyte. E. coli W1485 is a “semirough” bacterial strain in which the intact LPS core is capped by a single O-antigen subunit consisting of glucose, N-acetylglucosamine, galactose, and rhamnose in the ratio 1.8:1.0:0.7:0.6, which has been confirmed by the sodium dodecyl sulfate polyacrylamide gel electrophoresis (SDS-PAGE) method. Con A binds specifically at α-D-mannosyl and α-D-glucosyl residues (two hexoses differing only by the alcohol on carbon 2) in the terminal position of ramified structures from β-glycans (reach in α-mannose, or hybrid and biantennary glycanes complexes).

[2] = system: E. coli W1485; conditions: for ΔF (Hz): 30 mg/L antibiotic added after E. coli attached to sensor; for ΔF (Hz) / ΔR (Ω) / ΔR/R0 (%): FIG. 25A; for ΔR (Ω) / ΔR/R0 (%): 30 mg/L antibiotic added after E. coli attached; for frequency after antibiotic addition: 2 hour period after addition, from 350, 350 and 370 Hz before addition; for reduction of binding to (LPS activity, real time analysis): 1 hour time point
Description: The gold QCM electrode consisted of a thin AT-cut quartz crystal wafer with vapor deposited gold electrode on each side (10 MHz, non-polished with 1000 A gold, geometric area is 0.22 cm2, International Crystal Company). For all QCM test, the gold electrode was mounted on the side of a KeI-F cell chamber. Frequency monitoring was performed using a Maxtek RQCM quartz crystal microbalance research instrument. Baseline was recorded in 1 mL of 10 mM HEPES buffer containing 1 mM Ca^2+ and 1 mM Mn^2+. Each of the bacterial samples to be analyzed was then added into the detection sensor cell after stabilization of resonance frequency (shift less than 1 Hz·min-1). A small magnetic stir bar was used to increase the mass transfer through convection. The frequency changes (ΔF) of the QCM were monitored using a network/spectrum/impedance analyzer (Agilent 4395A) controlled by a PC via an Intel card.
For the real time measurements, Con A sensor was mounted in a biosensor cell containing 1 mL of 10 mM HEPES buffer (pH 7.4). Real time QCM measurements were obtained for each experimental step. First, 1 μL of 5×10^8 cells/mL E. coli obtained from the stationary phase was added into the biosensor cell. When frequency reached a constant value, it was washed with 1 mL of 10 mM HEPES buffer to remove the unbound E. coli. […] The frequency changes vs time and the damping resistance vs time were recorded by QCM.
Different types of antibiotics have differing abilities to alter the LPS properties and subsequent reduction in their binding. This can be used as an indicator for the antibiotic effects for killing the bacteria or inhibiting their growth. The biosensor ability to quantitatively measure these parameters real time was tested. For that purpose, the Con A sensor was exposed to 1 μL of 5×10^8 cells/mL E. coli to capture the bacteria via Con A-LPS binding. The unbound E. coli was removed by washing with 1 mL of 10 mM HEPES buffer.

[3] = system: E. coli W1485; conditions: for ΔR (Ω) / ΔR/R0 (%): 3 hours; for ΔF (Hz): FIG. 26
Description: Experiments were also performed to study the concentration of the antibiotics and the length of the incubation time of antibiotics for their ability to kill or inhibit the growth of the bacteria. Different concentrations of each antibiotic were added to 5×10^8 cells/mL E. coli respectively, and then incubated at 37° C. and 280 rpm on the shaker. After 3 hours of incubation, 1 μL of antibiotic treated E. coli culture was added to the Con A sensor cell containing 1 mL of 10 mM HEPES buffer (pH 7.4) for QCM measurements, respectively. […] 1 μL of each antibiotic treated E. coli was taken at different incubation times (i.e., 0, 1, 2, 3 hours) and was added into the Con A senor cell containing 1 mL of 10 mM HEPES buffer (pH 7.4) for QCM measurements.
Because antibiotics from different classes have different mechanisms of action and antibiotic effects on bacterial morphology and viability are concentration and time dependent, it was hypothesized that the ability of antibiotics to kill the bacteria or inhibit its growth may be class and concentration dependent, which will affect the interaction between the LPS and Con A sensor. To further study the effects of concentration and length of incubation time on the bactericidal activities of antibiotics, different concentration of antibiotics were added into the broth containing E. coli and incubated for different lengths of times. […] FIGS. 26D through 26F show the histogram of ΔF or ΔR changes vs antibiotics with different concentrations that are again correlated to each other with ceftriaxone showing consistent increase in resistance with increasing its concentration. This is probably due to more and more cell lysis, thereby intensifying the fluidic environment.
To further compare the effect of concentrations on the bactericidal activities of the antibiotics, the binding kinetics between Con A sensor and E. coli were studied. The binding between Con A sensor and E. coli can be described by eq 2. [Con Aattached to gold]+[E. coli]→[E. coli/Con Aattached to gold] (2)
The amount of the complex E. coli/Con A formed at time t after the injection is given by eqs 3 and […], where ΔMmax is the maximum binding amount of E. coli/Con A, ΔM is the measured binding amount, and t is the time after injection. τ is the relaxation time associated with E. coli binding, which is calculated from curve fittings of the ΔF during the binding process. A higher τ value means a longer binding time is required between the Con A and E. coli.

[4] = system: E. coli; conditions: cited from earlier work; for Previously Reported Minimum Inhibitory Concentration (MIC, mg/L): different strains
[5] = E. coli binding to Con A sensor after 1 mg/L antibiotic
[6] = E. coli binding to Con A sensor after 10 mg/L antibiotic
[7] = E. coli binding to Con A sensor after 30 mg/L antibiotic

SMILES | ΔF (Hz) [2] [Hz] | ΔR (Ω) [2] | ΔR/R0 (%) [2] [%] | frequency after antibiotic addition ([2]; 30 mg/L) [Hz] | reduction of binding to (LPS activity, real time analysis) ([2]; 30 mg/L) [%] | ΔR (Ω) ([3]; 1 mg/L antibiotic) | ΔR/R0 (%) ([3]; 1 mg/L antibiotic) | ΔR (Ω) ([3]; 10 mg/L antibiotic) | ΔR/R0 (%) ([3]; 10 mg/L antibiotic) | ΔR (Ω) ([3]; 30 mg/L antibiotic) | ΔR/R0 (%) ([3]; 30 mg/L antibiotic) | increase of the SWV signal as compared to control ([1]; 0.1 mg/L antibiotic) [folds] | relaxation time τ [3, 5] [min] | relaxation time τ [3, 6] [min] | relaxation time τ [3, 7] [min] | Previously Reported Minimum Inhibitory Concentration (MIC, mg/L) [4] [mg/L] | also measured
CN(C)[C@@H]1C(O)=C(C(N)=O)C(=O)[C@@]2(O)C(O)=C3C(=O)c4c(O)cccc4[C@@](C)(O)[C@H]3C[C@@H]12 [tetracycline] | −20 | −2.0 Ω | −0.6 | 350 | 95 | 16.3 Ω | 5.3 | 17.2 Ω | 5.6 | 14.5 Ω | 4.7 | – | – | – | – | – | increase of the SWV signal as compared to control ([1]; 10 mg/L antibiotic): 2 folds; reduction of binding to (LPS activity, real time analysis) ([2]; 30 mg/L, listed as Tetracycline): 95%; ΔF (Hz) ([3]; pretreated 3 hours with 10 mg/L antibiotic): 200 Hz and 212 Hz; ΔF (Hz) ([3]; pretreated 3 hours with 30 mg/L antibiotic): 160 Hz; ΔF (Hz) ([3]; stationary phase E. coli pretreated 3 hours with 1 mg/L antibiotic): 260 Hz and 262 Hz
O=C(O)c1cn(C2CC2)c2cc(N3CCNCC3)c(F)cc2c1=O [ciprofloxacin] | – | −2.0 Ω | −0.6 | 320 | 91 | 14.5 Ω | 4.7 | 10.5 Ω | 3.4 | 10.6 Ω | 3.5 | 7.2 | 21 | 23.5 | 23.6 | 0.0075 to 0.015 | reduction of binding to (LPS activity, real time analysis) ([2]; 30 mg/L, listed as Ciprofloxacin): 91%; most effective concentration to act against this bacterial strain ([3]; no big change in ΔF from 10 to 30 mg/L): 10 mg/L
CO/N=C(\C(=O)N[C@@H]1C(=O)N2C(C(=O)O)=C(CSc3nc(=O)c(=O)[nH]n3C)CS[C@H]12)c1csc(N)n1 [ceftriaxone] | −25 | −2.2 Ω | −0.7 | 325 | 93 | 16 Ω | 5.2 | 16.5 Ω | 5.4 | 18 Ω | 5.8 | 4.8 | 15.5 | 18.4 | 22.5 | 0.024 to 0.195 | decrease in frequency (fold of value before antibiotic) ([2]; 30 mg/L, 2 hour period after antibiotic addition): 0.93 fold; reduction of binding to (LPS activity, real time analysis) ([2]; 30 mg/L, listed as Ceftriaxone): 93%; MIC ([4]; E. coli (47)): 0.0125 to 25 µg/mL; MIC ([4]; E. coli (305)): 0.06 to 8 µg/mL
